System: increased blood flow through the facial skin caused by endogenous CGRP
Assay: Facial skin blood flow increase after trigeminal ganglion stimulation in marmosets (laser Doppler)
Assay type: in vivo
Conditions: anaesthetised marmosets; i.v. 5 min before the 2nd and 3rd stimulation periods; trigeminal ganglion stimulation 10Hz, 2 mA, 2 msec, for 30 sec
Text: The efficacy of the following test substances was characterised by determining the dose administered i.v. which reduces by 50% the increased blood flow through the skin of the face which has been brought about by endogenous CGRP: • (A) =1-[N^2-[3,5-dibromo-N-[[4-(3,4-dihydro-2(1H)-oxoquinazolin-3-yl)-1-piperidinyl]carbonyl]-D-tyrosyl]-L-lysyl]-4-(4-pyridinyl)-piperazine, • (B) =1-[4-amino-3,5-dibromo-N-[[4-(2,3,4,5-tetrahydro-2(1 H)-oxo-1,3-benzodiazepin-3-yl)-1-piperidinyl]carbonyl]-D-phenylalanyl]-4-(1-piperidinyl)-piperidine, • (AC) =(R,S)-1-[4-[4-(3,4-dihydro-2(1H)-oxoquinazolin-3-yl)-1-piperidinyl]-2-[(3,5-dibromo-4-methylphenyl)methyl]-1,4-dioxobutyl]-4-(4-methyl-1-piperazinyl)-piperidine, • (AM) =1-[4-amino-3,5-dibromo-N-[[4-(3,4-dihydro-2(1H)-oxoquinazolin-3-yl)-1-piperidinyl]carbonyl]-D-phenylalanyl]-4-(1-piperidinyl)-piperidine, • (DA =sumatriptan and • (DB) =zolmitriptan. Description of Method:
Marmosets of both sexes (300-400 g) are anaesthetised with pentobarbital (initially with 30 mg/kg, i.p., followed by infusion of 6 mg/kg/h, […].). The body temperature is maintained at 37° C. using a heating plate. Pancurmium is administered as a muscle relaxant (initially 1 mg/kg, 0.5 mg after each hour thereafter). The animal's head is secured in a stereotactical apparatus. After the skin on the head has been opened using a lengthwise incision, a small hole is drilled in the skull and a bipolar electrode (Rhodes SNES 100) is lowered into the trigeminal ganglion.
The petrous bone serves as a guide for placing the electrode (CCX-Digital X-ray apparatus). The position of the electrode in the ganglion is monitored at the end of each experiment. The stimulation parameters are: • 10Hz, 2 mA, 2 msec, for 30 sec.
The blood flow in the micro-vessels of the facial skin is determined by laser Doppler flow measurement using a PeriFlux Laser Doppler System.
The animals are exposed to 2 to 3 stimulation periods at intervals of 30 min in each case. The first stimulation serves as a reference value for the other stimulations. The test substances are administered i.v. 5 min before the 2nd and 3rd stimulation periods.

Row | SMILES | 50% dose = i.v. dose which reduces by 50% the increased blood flow through the facial skin caused by endogenous CGRP
1 | Nc1c(Br)cc(C[C@@H](NC(=O)N2CCC(N3Cc4ccccc4NC3=O)CC2)C(=O)N2CCC(N3CCCCC3)CC2)cc1Br [Substance AM, 1-[4-amino-3,5-dibromo-N-[[4-(3,4-dihydro-2(1H)-oxoquinazolin-3-yl)-1-piperidinyl]carbonyl]-D-phenylalanyl]-4-(1-piperidinyl)-piperidine] | 0.046 mg/kg
2 | NCCCC[C@H](NC(=O)[C@@H](Cc1cc(Br)c(O)c(Br)c1)NC(=O)N1CCC(N2Cc3ccccc3NC2=O)CC1)C(=O)N1CCN(c2ccncc2)CC1 [Substance A, 1-[N^2-[3,5-dibromo-N-[[4-(3,4-dihydro-2(1H)-oxoquinazolin-3-yl)-1-piperidinyl]carbonyl]-D-tyrosyl]-L-lysyl]-4-(4-pyridinyl)-piperazine] | 0.003 mg/kg
3 | Cc1c(Br)cc(C[C@H](CC(=O)N2CCC(N3Cc4ccccc4NC3=O)CC2)C(=O)N2CCC(N3CCN(C)CC3)CC2)cc1Br (racemic) [Substance AC, (R,S)-1-[4-[4-(3,4-dihydro-2(1H)-oxoquinazolin-3-yl)-1-piperidinyl]-2-[(3,5-dibromo-4-methylphenyl)methyl]-1,4-dioxobutyl]-4-(4-methyl-1-piperazinyl)-piperidine] | 0.018 mg/kg
4 | CN(C)CCc1c[nH]c2ccc(C[C@H]3COC(=O)N3)cc12 [Substance DB, zolmitriptan, reference compound] | 0.035 mg/kg
5 | CNS(=O)(=O)Cc1ccc2[nH]cc(CCN(C)C)c2c1 [Substance DA, sumatriptan, reference compound] | 0.280 mg/kg
6 | Nc1c(Br)cc(C[C@@H](NC(=O)N2CCC(N3CCc4ccccc4NC3=O)CC2)C(=O)N2CCC(N3CCCCC3)CC2)cc1Br [Substance B, 1-[4-amino-3,5-dibromo-N-[[4-(2,3,4,5-tetrahydro-2(1H)-oxo-1,3-benzodiazepin-3-yl)-1-piperidinyl]carbonyl]-D-phenylalanyl]-4-(1-piperidinyl)-piperidine] | 0.042 mg/kg
